# In patent US20040048791A1, “Method for treating neoplastic cells using cycloprodigiosin or salt thereof” (priority 2002, published 2004):
# “Also recorded” adds a separate entry of the source. Where a name gives a salt, the structure may show the parent alone. Read-outs that look alike come from different tables or passages of the source.
# How the values were obtained:
# NF-κB [1] = test: NF-κB luciferase gene reporter assay (pIG3Luc) in HeLa cells; format: cell-based
# Description: The plasmids, pRKF-IKKα and pRKHA-IKKβ have been described previously (Oka, S., Kamata, H., Kamata, K., Yagisawa, H. and Hirata, H. (2000) FEBS Lett., 472, 196-202). pRKF-IKKαEE and pRK-HA-IKKβEE encode constitutively active mutants of IKKα, in which 176 and 180 serine residues in an activation loop are replaced by glutamic acid residues, and IKKβ, in, which 177 and 181 serine residues are replaced by glutamic acid residues, respectively. A reporter plasmid pIG3Luc for NF-κB encodes triple NF-κB binding site sequences (AGCTTCAGAGGGGACTRANSCRIPTIONCCGAGAGG) (SEQ ID NO: 2) followed by the luciferase gene. A control plasmid, pBKRLuc, was obtained from Toyobo (Toyo B-Net Co., Japan). pcDNAF-MEKK1, pRKF-p65, pEFBOSHA-Rac1-DA, and pEFBOSHA-Cdc42-DA, are the expression plasmids for MEKK1, the NF-κB subunit p65, constitutively active Rac1 and Cdc42, respectively.
# Luciferase gene reporter assay and Kinase assays of IKK: HeLa cells were transfected with the reporter plasmids described above using Lipofectin (GIBCO BRL). After 24-48 hr, the luciferase activity was determined using the Luciferase Assay System (Promega). The kinase activity of IKKα and IKKβ were analyzed by immune complex kinase assay as described previously (Oka, S., Kamata, H., Kamata, K., Yagisawa, H. and Hirata, H. (2000) FEBS Lett. 472, 196-202). The substrates was using GST-IκBα(1-55) or GST-p65(399-551).
# The gene expression induction by NF-κB activation plays the most important role among “life” signals by TNFα. Therefore, the NF-κB reporter gene was introduced into the cells to analyze the effect of cPrG-HCl by luciferase assay.
# NF-κB is translocated into the nucleus also by activation with low-molecular-weight G proteins Rac1 and Cdc42 or MEKK1 and induces gene expression. An activated Rac1, Cdc42 or MEKK1 expression plasmid was introduced together with the NF-κB reporter gene into cells and the effect of cPrG-HCl on NF-κB activation was measured by luciferase assay (FIG. 4A and FIG. 4B).
# PKA = PKA (Homo sapiens, UniProt P17612); test: PKA activity in vitro; format: biochemical; settings: FIG. 13, hydrochloride
# Description: (§1) Accordingly, in order to identify the p65 kinase which cPrG-HCl suppressed, the effect of cPrG-HCl on PKA (FIG. 13), casein kinase II (CKII) (FIG. 12), and IκB kinase (IKK) (FIG. 14) was studied in vitro.
# NF-κB [2] = test: Nuclear translocation of NF-κB (Western blotting of p65 and p50); format: cell-based
# Method: Electrophoretic mobility shift assay (EMSA): Nuclear extracts were prepared by the method of Schreiber, et al (Schreiber, E., Matthias, P., Muller, M. M. and Schaffner, W. (1989) Nucleic Acids Res. 17, 6419). Briefly, cells were solubilized with a buffer (10 mM HEPES-NaOH, pH 7.9, 10 mM KCl, 0.1 mM EDTA, 0.1 mM EGTA, 0.4% NP-40, 0.5 mM PMSF, 1 μg/ml aprotinin, 1 μg/ml leupeptin, 1 μg/ml pepstatin, 1 mM DTT), and then centrifuged at 10,000 rpm for 15 min. The pellets were resuspended in a buffer (20 mM HEPES-NaOH, pH 7.9, 400 mM NaCl, 1 mM EDTA, 1 mM EGTA, 1 mM PMSF, 1 μg/ml aprotinin, 1 μg/ml leupeptin, 1 μg/ml pepstatin, 1 μg/ml chymostatin, 1 μg/ml antipain, 1 mM DTT), and then centrifuged at 15,000 rpm for 15 min. […] The samples were electrophoresed on an 8% polyacrylamide gel and analyzed by an Imaging plate (Fuji Film). […]
# In order to find out the mechanism of NF-κB suppression by cPrG-HCl, the effect on the signal transduction system, which functions upstream of NF-κB, was analyzed. […] Next, the effect of cPrG-HCl on phosphorylation and degradation of IκB was analyzed by Western blotting using anti-IκB antibody (FIG. 2E). […] Accordingly, nuclear translocation of NF-κB was analyzed by Western blotting using p65 and p50 which are components of NF-κB (FIG. 2F). […] Further, the state of NF-κB activation in the nucleus was analyzed by EMSA (electrophoretic mobility shift assay) (FIG. 2G). […]
# NF-κB [3] = settings: earlier abstract of the inventors (Kamata et al., 2000); cited from earlier work
# casein kinase II (CKII) = casein kinase II (CKII) (Homo sapiens, UniProt P68400); test: Casein kinase II activity in vitro; format: biochemical; settings: FIG. 12, hydrochloride
# Chain of casein kinase II (CKII) (P68400 whole entry): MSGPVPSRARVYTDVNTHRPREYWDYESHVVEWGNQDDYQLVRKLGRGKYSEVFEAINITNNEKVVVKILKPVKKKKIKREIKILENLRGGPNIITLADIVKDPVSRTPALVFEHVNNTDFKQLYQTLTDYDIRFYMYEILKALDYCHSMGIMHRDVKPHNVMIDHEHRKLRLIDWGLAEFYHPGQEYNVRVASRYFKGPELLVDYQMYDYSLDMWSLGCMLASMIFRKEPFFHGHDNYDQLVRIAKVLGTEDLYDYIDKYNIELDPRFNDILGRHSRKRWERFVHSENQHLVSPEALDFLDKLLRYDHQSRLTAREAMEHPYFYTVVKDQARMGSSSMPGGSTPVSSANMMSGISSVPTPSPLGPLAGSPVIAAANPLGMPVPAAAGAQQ
# Description: as §1
compound,measurement,setting,value
"COC1=CC(c2ccc[nH]2)=N/C1=C\c1[nH]c(C)c2c1C(C)CCC2 (centres unmarked) [cPrG-HCl, Cycloprodigiosin hydrochloride]",NF-κB-dependent gene expression induced by IKKα,NF-κB [1],Suppresses
same,NF-κB-dependent gene expression induced by IKKβ,NF-κB [1],Suppresses
same,NF-κB-dependent gene expression induced by p65,NF-κB [1],Suppresses
same,PMA-induced activation of NF-κB,NF-κB [1]; FIG. 3A,Suppresses
same,"TNFα-induced NF-κB activation (gene expression induction, luciferase)","NF-κB [1]; HeLa cells, FIG. 2A, 2C, hydrochloride",inhibited; also recorded: concentration-dependently suppressed
same,NF-κB activation induced by MEKK1,"NF-κB [1]; MEKK1 expression plasmid with reporter gene, FIG. 4",suppressed
same,NF-κB activation induced by Cdc42,"NF-κB [1]; activated Cdc42 expression plasmid with reporter gene, FIG. 4",suppressed
same,NF-κB activation induced by Rac1,"NF-κB [1]; activated Rac1 expression plasmid with reporter gene, FIG. 4",suppressed
same,TNFα-induced NF-κB activation,"NF-κB [1]; in the presence of imidazole, FIG. 2C",suppressed
same,effect on PKA activity,PKA,does not directly suppress; also recorded: no suppressive effect
same,nuclear translocation of NF-κB,"NF-κB [2]; PMA stimulation, FIG. 3B",inhibited neither
same,nuclear translocation of NF-κB,"NF-κB [2]; TNFα stimulation, FIG. 2F",not inhibited
same,nuclear translocation of NF-κB,NF-κB [3],no suppressive effect
same,effect on casein kinase II (CKII) activity,casein kinase II (CKII),does not directly suppress; also recorded: no suppressive effect
